Assay results as given in paper PMC7298712 (mBio, 2020).

Biological target: Risk1 (RT0135; rRisk1 WT) (Rickettsia typhi, UniProt Q68XM2)
Format: biochemical

Risk1 (RT0135; rRisk1 WT), sequence (Q68XM2 1-707): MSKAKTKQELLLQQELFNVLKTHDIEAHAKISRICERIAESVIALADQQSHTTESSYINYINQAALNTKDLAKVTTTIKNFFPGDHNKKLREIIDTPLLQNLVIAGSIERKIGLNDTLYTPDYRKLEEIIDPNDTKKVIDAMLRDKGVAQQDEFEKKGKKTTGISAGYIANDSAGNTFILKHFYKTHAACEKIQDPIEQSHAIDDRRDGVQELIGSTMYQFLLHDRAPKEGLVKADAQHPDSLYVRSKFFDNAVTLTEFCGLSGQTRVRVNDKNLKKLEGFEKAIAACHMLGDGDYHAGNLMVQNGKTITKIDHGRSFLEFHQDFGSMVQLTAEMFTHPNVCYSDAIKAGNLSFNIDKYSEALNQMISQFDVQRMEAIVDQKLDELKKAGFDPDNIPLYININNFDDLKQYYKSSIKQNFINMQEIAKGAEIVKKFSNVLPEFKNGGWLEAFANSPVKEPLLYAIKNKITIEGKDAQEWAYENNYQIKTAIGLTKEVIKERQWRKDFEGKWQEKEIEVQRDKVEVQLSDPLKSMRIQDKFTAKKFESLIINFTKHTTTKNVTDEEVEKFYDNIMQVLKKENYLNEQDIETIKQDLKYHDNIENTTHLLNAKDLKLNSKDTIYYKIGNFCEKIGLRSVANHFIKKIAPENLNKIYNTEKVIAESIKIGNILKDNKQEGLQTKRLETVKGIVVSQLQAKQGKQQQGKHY

In the case of COC[C@H]1OC(=O)c2coc3c2[C@@]1(C)C1=C(C3=O)[C@@H]2CCC(=O)[C@@]2(C)C[C@H]1OC(C)=O [wortmannin], the “ADP-Glo in vitro kinase assay, inhibition” value is reported as “preincubation with wortmannin significantly inhibited, in a concentration-dependent manner”.
